Experimental data published in patent publication US8637040B2, “Genus-wide chlamydial peptide vaccine antigens” (priority 2008, dated 2014).

Columns and labels:
[1] = test system: C. trachomatis-infected HEp2 cells; assay: Indirect immunofluorescence of immune sera on infected HEp2 cells; format: cell-based, human; settings: sera 1:40 dilution, FITC anti-mouse IgG
From the text: Micrographs of HEp2 cells infected with C. trachomatis are immunostained (by indirect immunofluorescence) with sera (1:40 dilution) from mice immunized with the designated peptides (A-E) or soluble. mAb2 (F). FITC anti-mouse IgG was the detecting antibody. Arrows point to distinct differences in targets of the immune sera. Antibodies in panels A-C recognized EB and RB and possibly some matrix material in the inclusion. Antibodies in D-E also recognized targets in the inclusion matrix and inclusion membrane, similar to immune sera raised against the older vaccine candidate, the entire mAb2 (F). 40× original magnification. Samples are counterstained with Evans blue.
HEp2 cells were infected with C. trachomatis were subjected to cytocentrifugation to deposit them onto microscope slides. After fixation (MeOH) they were stained with sera (1:40 dilution) from mice immunized with the indicated peptides or with soluble mAb2. The binding of the antibodies to the cells was detected using a fluorescent (FITC-labeled) secondary Ab, an anti-mouse IgG. Results appear in FIGS. 9A-F.

[2] = test system: human sera; assay: ELISA of human serum samples on 4 peptides (Example XI); format: binding
Description: (§1) Blood was collected prior to immunizations and prior to the two boosts. Sera were tested in ELISA. The ELISA method used in the present examples, in which many if not all the parameters and conditions may be varied or modified in ways that are completely conventional in the art, is described below. • 1. 96 well plates (Immulon HBX4) were coated with 50 μl of diluted antigen (peptides at 1 μg/well made in carbonate buffer) and incubated overnight at 4° C. • 2. Unbound antigen was removed by flicking the contents of the plate into a sink without further washing. • 3. Non-specific binding was blocked or prevented by adding 300 μL/well of 4% BSA/PBS-Tween 20 (0.05%). This was allowed to incubate for 2 hour at room temperature. • 4. The plates were washed once with PBS-Tween 20 (0.05%) and 50 μl of primary antibody was added per well at appropriate dilutions. When using serum, the starting dilution was 1:40 and was further diluted by doublings to 1:80, 1:160, and 1:320 (or higher as desired). Plates were incubated for 1 hour at 37° C. • 5. Plates were washed three times with PBS-Tween (0.05%) as above and 100 μl of secondary antibody was added per well at appropriate dilutions. For alkaline phosphatase-conjugated goat anti-mouse IgG-AP, a dilution of 1:500 was used here. Plates were incubated for 1 hour at 37° C. • 6. Plates were again washed three times as above and 200 μl of substrate solution for Alkaline phosphatase (p-nitro phenyl phosphate or pNPP) was added at a concentration of 5 mg/ml. The color reaction was read in an automated microplate reader at a frequency of […] and the absorbance (or optical density) was registered (referred to as A405 or OD405) Several important observations were made in these tests against the 4 peptides: (a) all 4 peptides were immunogenic and induced increasing anti-peptide responses with subsequent boosts in all mice (except in one non-responder) (FIG. 3). […] See also FIG. 16A-16B
Human sera were tested by PCR for expression of several chlamydial genes, by IHC against C. trachomatis-infected cells and by ELISA against several of the peptides of the present invention. Results are shown in Table 7 (below) which include results from PCR-studies for presence of DNA encoding the chlamydial Major Outer Membrane Protein (MOMP) in human peripheral blood mononuclear cells (PBMC) (which are primarily lymphocytes and monocytes) and cervical swabs
Also shown is IHC staining of C. trachomatis-infected human HEp2 cells and binding of antibodies in the patient samples to four peptides of the present invention (Pep4, 7, 8, and 10) in ELISA.

[3] = test system: C trachomatis; assay: DFA staining of vaginal smears after challenge of peptide-immunized mice; format: in vivo, mouse; settings: mice immunized three times at 100 μg doses; days 7 and 14 post-challenge
From the text: Mice are challenged with a human biovar of C trachomatis (K or E serovars for urogenital infections; C or B serovars for ocular infection).
Groups of 4-8 mice are “masked” as to pretreatment before challenge with live elementary bodies (EB). At weekly intervals through at least 4 wks, vaginal (or conjunctival) swabs are collected for isolation culture and direct fluorescence antibody staining for EB.
Using the murine models described above, the present inventors immunized mice with one of the four peptides (Pep4, 7, 8 or 10) administered three times at 100 μg doses. Results of direct fluorescent antibody (DFA) staining are summarized for days 7 and 14 post-challenge in FIGS. 10-11.

[4] = test system: Pep4, Pep7, Pep8, Pep10; assay: Cross-reactivity between peptides in ELISA; format: binding; settings: sera of mice immunized with a single peptide
Description: as §1
Both of these are category #1 peptides. […] That supports the notion that CDR1 and CDR3 of mAb2 are antigenically distinct.

[5] = test system: chlamydia; assay: Gross anatomical observation of genital tract inflammation after challenge; format: in vivo, mouse; settings: female mice primed and boosted twice SC, necropsy ~28 days post-challenge, vs adjuvant-only control
From the text: FIG. 15A-15C is a set of three photographs showing the gross morphology of tissues of the female reproductive tract of mice immunized and then challenged 28 days earlier with Pep4 or Pep7. Mice had been primed and boosted twice SC, as above, and were challenged with chlamydia 2 weeks later, rechallenged and sacrificed 4 weeks after re-challenge. Inflamed genital tracts outlined in dashed lines.
Genital tracts were exposed at necropsy ˜28 days post-challenge to score inflammatory changes (and then removed for histological analysis). […] Representative examples for recipients of Peptides 4 and 7 are shown in the center and right panels, respectively. Yellow arrows point to uterine horns (which are further demarcated with dashed lines). It is evident that the peptide immunogens reduced the gross pathology of the genital tract even weeks after challenge. This has been reproduced in a second experiment in which control mice received an irrelevant peptide instead of Peptides 4 or 7. Based on what is known in the art from other contexts, the histopathological results are expected to be consistent with these gross anatomical observations.

Sequence	structures recognized by immune sera in infected cells [1]	ELISA 1:40 on 4 peptides Scale: 1+-3+ ([2]; human serum sample # 1)	ELISA 1:40 on 4 peptides Scale: 1+-3+ ([2]; human serum sample # 2)	ELISA 1:40 on 4 peptides Scale: 1+-3+ ([2]; human serum sample # 3)	ELISA 1:40 on 4 peptides Scale: 1+-3+ ([2]; human serum sample # 5)	ELISA 1:40 on 4 peptides Scale: 1+-3+ ([2]; human serum sample # 7)	ELISA 1:40 on 4 peptides Scale: 1+-3+ ([2]; human serum sample # 8)	ELISA 1:40 on 4 peptides Scale: 1+-3+ ([2]; human serum sample # 9)	ELISA 1:40 on 4 peptides Scale: 1+-3+ ([2]; human serum sample # 10)	ELISA 1:40 on 4 peptides Scale: 1+-3+ ([2]; human serum sample # 12)	ELISA 1:40 on 4 peptides Scale: 1+-3+ ([2]; human serum sample # 13)	ELISA 1:40 on 4 peptides Scale: 1+-3+ ([2]; human serum sample # 16)	ELISA 1:40 on 4 peptides Scale: 1+-3+ ([2]; human serum sample # 18)	ELISA 1:40 on 4 peptides Scale: 1+-3+ ([2]; human serum sample # 21)	ELISA 1:40 on 4 peptides Scale: 1+-3+ ([2]; human serum sample # 22)	ELISA 1:40 on 4 peptides Scale: 1+-3+ ([2]; human serum sample # 23)	ELISA 1:40 on 4 peptides Scale: 1+-3+ ([2]; human serum sample # 24)	ELISA 1:40 on 4 peptides Scale: 1+-3+ ([2]; human serum sample # 26)	also measured
RYDVGGDHYYFTMD [Pep10]	recognized targets in the inclusion matrix and membrane	2	1	2.5	1.5	1	3	3	2	2	2	1	2	3	2	1	2	1.5	–
GYTFTDYSMH [Pep8]	recognized targets in the inclusion matrix and membrane	2	1	2.5	2	1	3	3	2	2	2	1.5	3	3	1.5	1.5	2	2	bacterial shedding measured by DFA staining [3]: reduced bacterial shedding; cross-reactivity of raised Abs with Peps 4, 7 or 10 (ELISA) [4]: did not cross-react
HALMPATAVASL [Pep7]	recognized EB and metabolically active, non-infectious reticulate bodies (RB)	1.5	1	2.5	2	0.75	3	3	2	1.5	2	1.5	3	2	1.5	1.5	1.5	2	gross inflammation / pathology of the genital tract [5]: not nearly as inflamed; cross-reactivity of raised Abs with Pep4 (ELISA) [4]: cross reacted
